The series in a line: gradient 5% acetonitrile 3 min, to 50% in 2 min, to 85% in 15 min, held 3 min, 100 µL/min. Particulars: column: Zorbax Extend-C18 2.1 x 50 mm; eluents: water / acetonitrile, 0.1% formic acid. An outline of the steps:
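In both positive and negative ionization mode, a quadrupole time-of-flight mass spectrometer coupled to HPLC analyzed pure standards run in mixtures of ~100 molecules. The Zorbax Extend-C18 column (2.1 × 50 mm, 1.8 μm) was operated at 100 μL/min with water and acetonitrile, each containing 0.1% formic acid. The dead volume was 40 μL and the dwell volume 900 μL. Retention time came from adduct peaks that were computationally picked and individually inspected by hand.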
On to `COC(=O)Nc1ccc(S(=O)(=O)NCc2ccc(C)cc2)cc1`, for which the RP-LC retention time was found to be 788 s.

The compound `O=C(NCc1ccc2c(c1)OCO2)c1n[nH]nc1Nc1ccc(F)cc1` displayed an RP-LC retention time of 872 s.

In turn, `COc1ncc(C(=O)NCc2ccc(OC)c(OC)c2)cn1` gave an RP-LC retention time of 638 s.

The compound `Cc1cc(N2CCN(C(=O)Nc3ccc(Cl)cc3)CC2)nc(N2CCOCC2)n1` showed an RP-LC retention time of 655 s.

For `CCN(CC)CCOC(=O)C(c1ccccc1)C1CCCCC1` (stereo unspecified), the RP-LC retention time came to 882 s.

`Cc1ccsc1C(=O)Nc1cccc(OCc2nnc(-c3ccc(F)cc3)o2)c1` came in with an RP-LC retention time of 981 s.

`CCOc1cc(=O)n2c(c1C(=O)NCC1CCCO1)CCCCC2` (stereo unspecified) displayed an RP-LC retention time of 610 s.

In turn, `CCn1cc(S(=O)(=O)N2CC(n3cc(C(=O)N4CCOCC4)nn3)C2)cn1` gave an RP-LC retention time of 632 s.

On to `COc1cc(-c2nnc(-c3ccc(C)c(S(=O)(=O)N(C)C)c3)o2)cc(OC)c1OC`, for which the RP-LC retention time is 936 s.

Take `C=CCSc1nc2ccccc2c2nc(-c3ccncc3)nn12`: the RP-LC retention time is 1150 s.

Consider `COc1cccc(C(=O)N2CCCn3nc(-c4cccs4)cc3C2)c1OC`, for which the RP-LC retention time was 798 s.

In turn, `CC1CCc2onc(C(=O)Nc3cccc(Cl)c3)c2C1` (stereo unspecified) displayed an RP-LC retention time of 1160 s.

`COCCN1C(=O)c2cccn2CC1CNC(=O)c1ccc(Cc2c(C)noc2C)o1` (stereo unspecified) returned an RP-LC retention time of 679 s.

The compound `Cc1ccc(CNC(=O)C2(C)CCCN(C(=O)c3cccc(Br)c3)C2)cc1` (stereo unspecified) came in with an RP-LC retention time of 960 s.

`O=C(NC1CCCCCC1)C1CCN(c2cncnc2N2CCOCC2)CC1` displayed an RP-LC retention time of 635 s.

With `O=C(NCc1ccco1)C1CCN(c2nc3cccnc3s2)CC1`, the RP-LC retention time amounted to 683 s.

Turning to `Cc1ccc(CN2CCc3nc(N4CCCC4)ncc3C2)cc1C`, the RP-LC retention time stood at 640 s.

Turning to `COCCCN(CC(=O)N1CCc2sccc2C1COc1ccc(F)cc1)C(C)=O` (stereo unspecified), the RP-LC retention time was 802 s.

As for `CCn1c(=O)c2cc(C(=O)NCc3ccccc3C(F)(F)F)nn2c2ccccc21`, the RP-LC retention time is 1000 s.

The compound `Cc1ccc(NC(=O)C2CCCN(S(=O)(=O)c3c[nH]c(C(=O)N4CCCC4)c3)C2)nc1` (stereo unspecified) had an RP-LC retention time of 824 s.

`Cc1ccc(C)c(NC(=O)N2CCC3(CC2)NC(=O)c2ccccc2N3C)c1` registered an RP-LC retention time of 763 s.

Compound `O=C(Cn1c2ccccc2c2ncn(Cc3nc(C4CC4)no3)c(=O)c21)NCCC1=CCCCC1` gave an RP-LC retention time of 940 s.

Compound `CCc1noc(-c2ccc(-n3cnc(C(=O)NC(C)c4ccccc4)c3)nc2)n1` (stereo unspecified) came in with an RP-LC retention time of 919 s.

Compound `COc1cccc(-c2cc3n(n2)CCCN(C(=O)NCc2ccco2)C3)c1` displayed an RP-LC retention time of 850 s.

`O=C(CSc1nnc(-c2ccc3c(c2)OCCCO3)n1C1CC1)N1CCCC1` had an RP-LC retention time of 710 s.

With `CCn1nccc1-c1cccc(-c2noc(COc3ccc(Cl)cc3)n2)c1`, the RP-LC retention time is 1200 s.

`CNC(=O)c1cccc(-c2noc(C)n2)c1` displayed an RP-LC retention time of 644 s.

The compound `CNC(=O)NCCc1c[nH]c2ncccc12` gave an RP-LC retention time of 512 s.

Turning to `C=CCN1C(=O)COc2ccc(-c3csc(NC(=O)c4ccco4)n3)cc21`, the RP-LC retention time worked out at 882 s.

Regarding `O=C(CCCN1C(=O)c2cccnc2Oc2ccccc21)N1CCN(c2ccccn2)CC1`, the RP-LC retention time was determined as 605 s.

As for `Cc1noc2nc(C)n(CC(=O)NC3CCCc4ccccc43)c(=O)c12` (stereo unspecified), the RP-LC retention time amounted to 822 s.

Compound `Cc1cccc(NC(=O)C2CCCN(S(=O)(=O)c3c[nH]c(C(=O)N4CCCCCC4)c3)C2)c1C` (stereo unspecified) came in with an RP-LC retention time of 883 s.

Regarding `NC(=O)c1cc(C(N)=O)nc(Cl)n1`, the RP-LC retention time is 604 s.

Take `O=C(COc1ccc(F)cc1)N1CCC(c2noc(C3CC3)n2)C1` (stereo unspecified): the RP-LC retention time turned out to be 791 s.

For the compound `Cc1cc(F)ccc1NC(=O)C1CCCN1S(=O)(=O)c1cc2c(cc1C)NC(=O)CO2` (stereo unspecified), the RP-LC retention time was 761 s.

On to `COc1ccc(-c2cc3c4nnc(SCC(=O)NCc5ccc(SC)cc5)n4ccn3n2)cc1`, for which the RP-LC retention time came out at 832 s.

The compound `Cc1[nH]c(C(=O)N2CCCC(C(=O)N3CCN(c4ccccc4)CC3)C2)c(C)c1C(=O)OC(C)C` (stereo unspecified) returned an RP-LC retention time of 892 s.

In the case of `Cc1cccc(NC(=O)C(=O)NCCc2cccs2)n1`, the RP-LC retention time came to 788 s.

Compound `O=C(Nc1ccc(OCc2nnc(-c3ccc(Cl)cc3)o2)cc1)c1cccnc1` registered an RP-LC retention time of 816 s.

Compound `CN1CCC(N2CCN(S(=O)(=O)c3ccc(F)cc3)CC2)C1=O` (stereo unspecified) returned an RP-LC retention time of 552 s.

With `O=C(Nc1cccc2ccccc12)N1CCOCC1`, the RP-LC retention time stood at 639 s.

With `Cc1cc(C)c(S(=O)(=O)NCCn2c(C)cnc2C2CC2)cc1C`, the RP-LC retention time was 659 s.

Consider `CCOc1ccc(CN(C(=O)Cc2coc3ccc(CC)cc23)C2CCS(=O)(=O)C2)cc1` (stereo unspecified), for which the RP-LC retention time amounted to 1050 s.

The compound `COc1ccc(-c2nnc(Cc3nc(-c4ccc(F)cc4)no3)o2)cc1` registered an RP-LC retention time of 954 s.

`CSc1ccccc1NC(=O)C(=O)NCC1CCN(C(=O)COc2ccccc2)CC1` showed an RP-LC retention time of 754 s.

`O=C(c1ccc(-n2cccn2)nn1)N1CCN(C(=O)c2ccco2)CC1` returned an RP-LC retention time of 611 s.

In turn, `Cn1ncc2c(Sc3ccc(Cl)cc3)ncnc21` yielded an RP-LC retention time of 1000 s.

As to `O=C(Cc1c[nH]c2ccccc12)N1CCC(Oc2ccc(-c3noc(C4CC4)n3)cc2)C1` (stereo unspecified), the RP-LC retention time came to 964 s.

Compound `Cc1ccc(C)c(S(=O)(=O)N(C)CC2CCOCC2)c1` showed an RP-LC retention time of 913 s.

With `CCN1CCc2nc(NC(=O)C3CCN(S(=O)(=O)c4ccc(Cl)s4)CC3)sc2C1`, the RP-LC retention time is 656 s.

The compound `COc1ccc(-c2csc(NC(=O)CSc3nc4c(cc3C#N)CCC4)n2)cc1` came in with an RP-LC retention time of 1120 s.

`Cc1nc(N2CCCC2)ncc1-c1ccnc(N2CCN(c3ccccc3)CC2)n1` registered an RP-LC retention time of 1100 s.

`COc1cccc(NC(=O)C2CC(=O)N(c3ccc4c(c3)CCN4C(C)=O)C2)c1` (stereo unspecified) showed an RP-LC retention time of 693 s.

Regarding `CN1C(=O)c2cccnc2Sc2cc(NC(=O)c3cccc(Br)c3)ccc21`, the RP-LC retention time is 876 s.

Regarding `CCn1ccc(C(=O)N2CCn3c(nnc3-c3ccccc3)C2)n1`, the RP-LC retention time worked out at 604 s.

Consider `CSc1cccc(N2C(=O)C3N=NN(Cc4nc(-c5ccccc5)no4)C3C2=O)c1` (stereo unspecified), for which the RP-LC retention time worked out at 992 s.

In the case of `CCc1nc(-c2csc(S(=O)(=O)N3CCC(C(=O)Nc4ccc(C(C)C)cc4)CC3)c2)no1`, the RP-LC retention time came to 1140 s.

Consider `Cc1cnc(C)n1C1CCN(S(=O)(=O)c2ccc(C#N)cc2)CC1`, for which the RP-LC retention time amounted to 626 s.

For the compound `COc1ccccc1NC(=O)c1ccc(NS(=O)(=O)c2cc(C)ccc2C)cc1`, the RP-LC retention time worked out at 926 s.

Regarding `COc1ccc(OCC(=O)N2CCCN(c3cc(=O)n(C(C)C)c(=O)n3C(C)C)CC2)cc1`, the RP-LC retention time was determined as 834 s.

Compound `COc1ccc2c(c1)C1(CCN(S(=O)(=O)c3ccccc3F)C1)C(=O)N2C` (stereo unspecified) displayed an RP-LC retention time of 901 s.

Turning to `COc1ccccc1-c1nnc(-c2cccc(S(=O)(=O)N3CCCC3)c2)o1`, the RP-LC retention time came out at 885 s.

Consider `O=C(Cn1cccc1-c1nnc(C2CC2)o1)N1CCN(c2ccccc2F)CC1`, for which the RP-LC retention time is 872 s.

For the compound `Cc1ccc(OCC(=O)NC2(c3nc(-c4cccnc4)no3)CCCCC2)cc1`, the RP-LC retention time came to 1010 s.

As for `Cc1c(-c2nnc(C(=O)NCCCN3CCOCC3)o2)oc2c(C)cccc12`, the RP-LC retention time is 696 s.

`Cc1cc(C)cc(Nc2nc(C)cc3nn(CC(=O)N4CCC(C)CC4)c(=O)n23)c1`: the RP-LC retention time came out at 1160 s.

`Cc1ccc(CNC(=O)C2CCN(S(C)(=O)=O)c3ccccc3O2)cc1` (stereo unspecified) returned an RP-LC retention time of 854 s.

`Cc1ccc(NC(=O)C2CCN(C(=O)c3ncn4c3COC(c3ccccc3)C4)CC2)cc1C` (stereo unspecified) registered an RP-LC retention time of 796 s.

`O=C1[C@H]2CN(Cc3cccc(F)c3)C[C@H]2C(=O)N1Cc1ccc2c(c1)OCO2` gave an RP-LC retention time of 800 s.

Consider `Cc1ccc2nc(C)cc(C(=O)NC(C)C)c2c1`, for which the RP-LC retention time was 595 s.

`Cn1nc(-c2nc(-c3cccc(F)c3)no2)c2c1CCN(C(=O)NC(C)(C)C)C2` gave an RP-LC retention time of 964 s.

With `CCc1nc2c(NC(=O)c3ccc(C)cc3C)cccn2n1`, the RP-LC retention time came out at 920 s.

`COc1ccc(C)cc1NC(=O)CCCn1cccc1` showed an RP-LC retention time of 876 s.

As for `Cc1nc(C(=O)N2CCC[C@H]2Cc2nnc(-c3ccccc3)o2)c(-c2ccccc2F)s1`, the RP-LC retention time is 1050 s.

In turn, `Cc1nc(N)nc(Nc2ccc(C#N)cc2)c1Br` yielded an RP-LC retention time of 658 s.

Take `CCOC(=O)c1cc2c([nH]c1=O)CC(c1cccc(Cl)c1)CC2=O` (stereo unspecified): the RP-LC retention time was determined as 770 s.

For the compound `COc1ccc(C2Cn3nnc(-c4nc(-c5cccc(Cl)c5)no4)c3CO2)cc1` (stereo unspecified), the RP-LC retention time turned out to be 1250 s.

Regarding `Cc1cc(=O)n(CC(=O)Nc2cccc(F)c2)c(N2CCOCC2)n1`, the RP-LC retention time was 666 s.

`Cc1cc(-c2nnc(C3CCC3)o2)c(C)n1CC(=O)Nc1ccc(Br)cc1F` registered an RP-LC retention time of 982 s.

Consider `Cc1cc(C(=O)N2CCCC2c2ccccc2Cl)on1` (stereo unspecified), for which the RP-LC retention time is 889 s.

With `COc1ccc(Br)c2c1-c1nc(NC(=O)c3cccc(C)c3)sc1C2`, the RP-LC retention time was 1140 s.

For the origin of these results see the METLIN SMRT retention time set (Domingo-Almenara et al. 2019).
